Measured values as given in patent US5013554A, “Oral pharmaceutical compositions containing dextrophan salts” (Prodotti Formenti s.r.l., priority 1988, dated 1991).
Counter-ions that a name gives are not always drawn.

Tests used:
[1] = pharmacokinetic study on guinea pigs under urethane anaesthesia, oral administration of dextrorphan citrate and tartrate; plasma dextrorphan by HPLC after β-glucuronidase hydrolysis; assay type: in vivo
Description: The results from a pharmacokinetic study effected on guinea pigs under urethane anesthaesia, to which dextrorphan citrate and tartrate had been administered by the oral route, are reported hereinbelow in order to show the good bioavailability of dextrorphan salts.
Dextrorphan dosages were measured by a high pressure liquid chromatography method.
The plasma samples were subjected, before the extraction, to enzymatic hydrolysis with β-glucuronidase, according to the method reported by T.EAST and D.DYE (Journal of Chromatography Biomedical Applications 388, 99-112, 1985).
After hydrolysis, plasma samples were alkalinized with sodium carbonate and extracted with benzene; benzene was re-extracted with 0.5 ml of 0.1 NHCl and 100 mcl were chromatographed under the following conditions:
COLUMN: Lichrosorb RP Select B Merck 5 λ, 25 cm ×4 mm inn. d.
MOBILE PHASE: Octanesulphonic acid sodium salt 0.01M solution in water. Acetonitrile mixture (68-32% ). The solution was then buffered to pH 3 with phosphoric acid.
DETECTOR: F 1000 MERCK HITACHI Fluorimeter exc.=280 nm; em.=310 nm

[2] = background; cited from earlier work
[3] = background; cited from earlier work; remark: listed apart in the source
opiaceous receptors = conditions: background; cited from earlier work
[4] = background; compared with dextromethorphan; cited from earlier work
[5] = previously reported; cited from earlier work

Row | Compound | oral absorption ([1]; in words) | concentration at 0.25 h ([1]; guinea pig, plasma, po, Table 2 (dextrorphan tartrate by order of b16), 15 minutes, read-out: Dextrorphan hematic levels) [ng/mL] | concentration at 0.5 h ([1]; guinea pig, plasma, po, Table 2 (dextrorphan tartrate by order of b16), 30 minutes, read-out: Dextrorphan hematic levels) [ng/mL] | concentration at 1 h ([1]; guinea pig, plasma, po, Table 2 (dextrorphan tartrate by order of b16), 60 minutes, read-out: Dextrorphan hematic levels) [ng/mL] | concentration at 2 h ([1]; guinea pig, plasma, po, Table 2 (dextrorphan tartrate by order of b16), 120 minutes, read-out: Dextrorphan hematic levels) [ng/mL] | concentration at 3 h ([1]; guinea pig, plasma, po, Table 2 (dextrorphan tartrate by order of b16), 180 minutes, read-out: Dextrorphan hematic levels) [ng/mL] | concentration at 5 h ([1]; guinea pig, plasma, po, Table 2 (dextrorphan tartrate by order of b16), 300 minutes, read-out: Dextrorphan hematic levels) [ng/mL] | antitussive action [2] | analgesic activity [3] | affinity to the opiaceous receptors (opiaceous receptors) | toxicity [4] | use by the oral route [5]
1 | CN1CC[C@@]23CCCC[C@@H]2[C@@H]1Cc1ccc(O)cc13 [Dextrorphan citrate] | effectively absorbed |  |  |  |  |  |  |  |  |  |  | 
2 | CN1CC[C@@]23CCCC[C@@H]2[C@@H]1Cc1ccc(O)cc13 [Dextrorphan] |  | 10 | 470 | 2500 | 3800 | 3000 | 3800 | remarkable antitussive action | lack of analgesic activity | lack of analgesic activity and of affinity to the opiaceous receptors | very low toxicity, even lower than that of dextromethorphan | not to be conveniently used by the oral route
